Measured values reported in publication PMC7591906, “pHLIP ICG for delineation of tumors and blood flow during fluorescence-guided surgery” (Scientific Reports, 2020).
Peptide text beside a SMILES is read from it. * marks the point of attachment. X1 = CC1(C)C(/C=C/C=C/C=C/C=C2/N(CCCCCC(=O)NCCN3C(=O)CC(*)C3=O)c3ccc4ccccc4c3C2(C)C)=[N+](CCCCS(=O)(=O)[O-])c2ccc3ccccc3c21

What was measured:
[1] = Imaging of blood vessels in pigs; type: in vivo; settings: i.v. 0.052 + 0.12 + 0.24 mg/kg, Stryker 1688 AIM and SPY-PHI
Protocol: Pigs (50 kg) received pHLIP ICG dissolved in PBS or PBS containing 5% Ethanol. Three doses of pHLIP ICG were administered (dose level 1 is 0.052 mg/kg of pHLIP ICG, dose level 2 is an additional administration of 0.12 mg/kg of pHLIP ICG and dose level 3 is an additional administration of 0.24 mg/kg of pHLIP ICG). Each dose was injected intravenously in one bolus followed by a saline flush. Endoscopical and exoscopical imaging was performed at the same time and up to 2 hrs after pHLIP ICG administration. Endoscopic imaging was carried out using the Stryker 1688 system with the L11 light source (808 nm excitation) and adjustable gain. […] Images and video were recorded on a Stryker Connected OR Hub device. […] The overlay mode captures an NIR frame and a white light frame and combines the two to allow surgeons to have the best fluorescence reference (green) while still operating. […] The ENV mode contains the white light frame data in a black/white mode and overlays the fluorescence signal in green to provide a hybrid mode that allows a higher signal-to-noise ratio view of the fluorescence image while still retaining enough of a view of the surrounding tissue to allow the surgeon to continue to operate. The SPY-PHI system has three infrared imaging modes: Overlay, Contrast, and CSF (color-segmented fluorescence). […]

progesterone receptor B = target: T1, progesterone receptor B (Homo sapiens, UniProt P06401); test: Progesterone receptor B radioligand binding assay
T1 construct: purchased Eurofins Panlabs, Inc
T1 sequence (P06401 1-933): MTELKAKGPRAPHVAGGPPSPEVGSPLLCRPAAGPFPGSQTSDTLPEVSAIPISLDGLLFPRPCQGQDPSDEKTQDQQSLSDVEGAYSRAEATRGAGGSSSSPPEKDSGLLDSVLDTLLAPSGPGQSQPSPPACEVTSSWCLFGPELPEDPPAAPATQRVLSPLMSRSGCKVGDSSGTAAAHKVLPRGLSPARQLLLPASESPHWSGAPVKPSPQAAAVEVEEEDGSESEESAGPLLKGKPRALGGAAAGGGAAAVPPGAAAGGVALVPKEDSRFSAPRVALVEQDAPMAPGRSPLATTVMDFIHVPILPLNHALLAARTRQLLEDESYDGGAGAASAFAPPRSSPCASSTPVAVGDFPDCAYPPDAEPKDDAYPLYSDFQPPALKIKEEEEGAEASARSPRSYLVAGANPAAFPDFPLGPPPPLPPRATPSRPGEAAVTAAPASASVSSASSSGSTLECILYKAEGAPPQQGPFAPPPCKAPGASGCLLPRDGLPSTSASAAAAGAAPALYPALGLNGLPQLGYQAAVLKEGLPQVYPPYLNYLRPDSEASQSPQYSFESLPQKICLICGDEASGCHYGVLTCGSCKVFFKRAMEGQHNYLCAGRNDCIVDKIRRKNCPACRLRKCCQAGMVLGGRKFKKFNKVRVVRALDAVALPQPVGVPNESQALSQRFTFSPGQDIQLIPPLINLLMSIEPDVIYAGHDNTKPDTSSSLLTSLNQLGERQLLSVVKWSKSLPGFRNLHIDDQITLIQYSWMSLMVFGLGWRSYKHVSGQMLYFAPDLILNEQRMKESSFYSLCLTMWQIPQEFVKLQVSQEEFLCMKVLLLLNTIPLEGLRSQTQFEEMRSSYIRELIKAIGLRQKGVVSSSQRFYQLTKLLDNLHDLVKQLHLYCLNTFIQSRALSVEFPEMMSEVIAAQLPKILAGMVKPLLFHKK
Protocol: The pHLIP ICG enzyme binding assays were performed by Eurofins Panlabs, Inc. according to standard assay protocols. The following enzymes were used in the binding assay with 2 µM of pHLIP ICG : acetyl cholinesterase; peptidase (angiotensin converting enzyme); ATPase (Na^+/K^+, pig heart); CTSG peptidase (cathepsin G); cyclooxygenases COX-1 and COX-2; monoamine oxidases MAO-A and MAO-B; phosphodiesterases PDE3 and PDE4D2; protein tyrosine kinase (insulin receptor); protein tyrosine kinase (LCK); protein serine/threonine kinase (PKC, non-selective); adenosine A1 and A2A; adenosine transporter; adrenergic α1A, α1B, α1D, α2A, α2B, β1 and β2; norepinephrine transporter (NET); androgen (testosterone); angiotensin AT1; bradykinin B2; calcium channels L-type (benzothiazepine, dihydropyridine, phenylalkylamine); calcium channel N-type; cannabinoid CB1 and CB2; chemokine CCR1; cholecystokinin CCK1 (CCKA) and CCK2 (CCKB); dopamine D1, D2L and D2S; dopamine transporter (DAT); endothelin ETA; estrogen ERα; GABA transporter; GABAAs (flunitrazepam, central; Ro-15-1788, hippocampus and chloride channel, TBOB); glucocorticoid; glutamate (AMPA, kainate, agonism NMDA, glycine NMDA, phencyclidine NMDA, polyamine NMDA, and mGlu5 metabotropic); glycine (strychnine-sensitive); histamine H1 and H2; chemokine CXCR2 (IL-8RB); cysteinyl leukotriene (CysLT1); melanocortin MC1 and MC4; muscarinic M1, M2, M3, and M4; tachykinin NK1; neuropeptide Y Y1; nicotinic acetylcholine α1 (bungarotoxin) and α3β4; opiate δ1 (OP1, DOP), κ (OP2, KOP), and μ (OP3, MOP); platelet activating factor (PAF); potassium channels (KATP and hERG); PPARγ; serotonin (5-hydroxytryptamine) 5-HT1A, 5-HT1B, 5-HT2A, 5-HT2B, 5-HT2C, and 5-HT3; serotonin transporter (SERT); sodium channel (site 2); vasopressin V1A; progesterone (PR-B). The most significant inhibitory effect of pHLIP ICG was observed on progesterone B and was followed by an additional study to identify IC50 values, which were determined by a non-linear least square regression analysis using MathIQTM (ID Business Solutions Ltd., UK). The Ki values were calculated by the equation from Cheng and Prusoff [Cheng, Y., Prusoff, W.H., Biochem. Pharmacol. 22:3099-3108, 1973] using the observed IC50 of pHLIP ICG , the concentration of radioligand employed in the assay, and the historical values for the KD of the ligand (Eurofins Panlabs data). The Hill coefficient (nH), defining the slope of the competitive binding curve, was calculated using MathIQTM. The IC50, Ki, and nH values were established for pHLIP ICG and compared to the known progesterone agonist, R-2050 (Figure S3).
Figure SI,3. […]

For `CC(C)C[C@H](NC(=O)[C@H](Cc1ccc(O)cc1)NC(=O)[C@H](C)NC(=O)[C@H](CCCNC(=N)N)NC(=O)[C@H](Cc1c[nH]c2ccccc12)NC(=O)[C@@H]1CCCN1C(=O)[C@H](CC(N)=O)NC(=O)[C@H](CCC(N)=O)NC(=O)[C@H](CC(=O)O)NC(=O)[C@H](CC(=O)O)NC(=O)[C@H](CSC1CC(=O)N(CCNC(=O)CCCCCN2/C(=C/C=C/C=C/C=C/C3=[N+](CCCCS(=O)(=O)[O-])c4ccc5ccccc5c4C3(C)C)C(C)(C)c3c2ccc2ccccc32)C1=O)NC(=O)[C@H](C)N)C(=O)N[C@@H](CC(=O)O)C(=O)N[C@@H](CC(C)C)C(=O)N[C@@H](CC(C)C)C(=O)N[C@@H](Cc1ccccc1)C(=O)N1CCC[C@H]1C(=O)N[C@H](C(=O)N[C@@H](CC(=O)O)C(=O)N[C@H](C(=O)N[C@@H](CC(C)C)C(=O)N[C@@H](CC(C)C)C(=O)N[C@@H](CC(C)C)C(=O)N[C@@H](CC(=O)O)C(=O)N[C@@H](CC(C)C)C(=O)N[C@@H](CC(C)C)C(=O)N[C@@H](Cc1c[nH]c2ccccc12)C(=O)N[C@@H](C)C(=O)O)[C@@H](C)O)[C@@H](C)O` (stereo partly drawn) [pHLIP ICG] (H-AC(X1)DDQNPWRAYLDLLFPTDTLLLDLLWA-OH), the “Visibility of illuminated blood vessels” value [1] was “clearly visible at 2 h post-injection”, the IC50 (progesterone receptor B) was 640 nM and the Ki (progesterone receptor B) was 510 nM.
